Experiments:
A549 [1] = assay: Antiproliferative activity against human A549 cells over-expressing LSD1 assessed as reduction in cell viability measured after 72 hrs by MTT assay; details: A549, 72 h
NCI-H1299 [2] = assay: Antiproliferative activity against human NCI-H1299 cells over-expressing LSD1 assessed as reduction in cell viability measured after 72 hrs by MTT assay; details: NCI-H1299, 72 h
SMMC-7721 [3] = assay: Antiproliferative activity against human SMMC7721 over-expressing LSD1 cells assessed as reduction in cell viability measured after 72 hrs by MTT assay; details: SMMC-7721, 72 h
A2780 [4] = assay: Antiproliferative activity against human A2780 cells over-expressing LSD1 assessed as reduction in cell viability measured after 72 hrs by MTT assay; details: A2780, 72 h
HCT-116 [5] = assay: Antiproliferative activity against human HCT116 cells over-expressing LSD1 assessed as reduction in cell viability measured after 72 hrs by MTT assay; details: HCT-116, 72 h
MCF7 [6] = assay: Antiproliferative activity against human MCF7 cells over-expressing LSD1 assessed as reduction in cell viability measured after 72 hrs by MTT assay; details: MCF7, 72 h
MDA-MB-231 [7] = assay: Antiproliferative activity against human MDA-MB-231 cells over-expressing LSD1 assessed as reduction in cell viability measured after 72 hrs by MTT assay; details: MDA-MB-231, 72 h
PC-3 [8] = assay: Antiproliferative activity against human PC3 cells over-expressing LSD1 assessed as reduction in cell viability measured after 72 hrs by MTT assay; details: PC-3, 72 h
DU-145 [9] = assay: Antiproliferative activity against human DU145 cells over-expressing LSD1 assessed as reduction in cell viability measured after 72 hrs by MTT assay; details: DU-145, 72 h
A549 [10] = assay: Antiproliferative activity against human A549 cells over-expressing LSD1 assessed as reduction in cell viability measured after 96 hrs by MTT assay; details: A549, 96 h
NCI-H1299 [11] = assay: Antiproliferative activity against human NCI-H1299 cells over-expressing LSD1 assessed as reduction in cell viability measured after 96 hrs by MTT assay; details: NCI-H1299, 96 h
SMMC-7721 [12] = assay: Antiproliferative activity against human SMMC7721 cells over-expressing LSD1 assessed as reduction in cell viability measured after 96 hrs by MTT assay; details: SMMC-7721, 96 h
A2780 [13] = assay: Antiproliferative activity against human A2780 cells over-expressing LSD1 assessed as reduction in cell viability measured after 96 hrs by MTT assay; details: A2780, 96 h
HCT-116 [14] = assay: Antiproliferative activity against human HCT116 cells over-expressing LSD1 assessed as reduction in cell viability measured after 96 hrs by MTT assay; details: HCT-116, 96 h
MCF7 [15] = assay: Antiproliferative activity against human MCF7 cells over-expressing LSD1 assessed as reduction in cell viability measured after 96 hrs by MTT assay; details: MCF7, 96 h
MDA-MB-231 [16] = assay: Antiproliferative activity against human MDA-MB-231 cells over-expressing LSD1 assessed as reduction in cell viability measured after 96 hrs by MTT assay; details: MDA-MB-231, 96 h
PC-3 [17] = assay: Antiproliferative activity against human PC3 cells over-expressing LSD1 assessed as reduction in cell viability measured after 96 hrs by MTT assay; details: PC-3, 96 h
DU-145 [18] = assay: Antiproliferative activity against human DU145 cells over-expressing LSD1 assessed as reduction in cell viability measured after 96 hrs by MTT assay; details: DU-145, 96 h

Structure (SMILES): O=C(N/N=C1\CCc2cccc(O)c21)c1cccc(S(=O)(=O)N2CCOCC2)c1
- IC50 (A549 [1]): 920 nM
- IC50 (NCI-H1299 [2]): 2010 nM
- IC50 (SMMC-7721 [3]): 2960 nM
- IC50 (A2780 [4]): 810 nM
- IC50 (HCT-116 [5]): 360 nM
- IC50 (MCF7 [6]): 300 nM
- IC50 (MDA-MB-231 [7]): 680 nM
- IC50 (PC-3 [8]): 3110 nM
- IC50 (DU-145 [9]): 2490 nM
- IC50 (A549 [10]): 390 nM
- IC50 (NCI-H1299 [11]): 790 nM
- IC50 (SMMC-7721 [12]): 1340 nM
- IC50 (A2780 [13]): 340 nM
- IC50 (HCT-116 [14]): 250 nM
- IC50 (MCF7 [15]): 220 nM
- IC50 (MDA-MB-231 [16]): 410 nM
- IC50 (PC-3 [17]): 1000 nM
- IC50 (DU-145 [18]): 220 nM

Structure (SMILES): O=C(N/N=C1\CCc2c(Cl)ccc(O)c21)c1cccc(S(=O)(=O)N2CCOCC2)c1
- IC50 (A549 [1]): 780 nM
- IC50 (NCI-H1299 [2]): 3330 nM
- IC50 (SMMC-7721 [3]): 3160 nM
- IC50 (A2780 [4]): 1130 nM
- IC50 (HCT-116 [5]): 480 nM
- IC50 (MCF7 [6]): 410 nM
- IC50 (MDA-MB-231 [7]): 710 nM
- IC50 (PC-3 [8]): 2450 nM
- IC50 (DU-145 [9]): 2950 nM
- IC50 (A549 [10]): 400 nM
- IC50 (NCI-H1299 [11]): 980 nM
- IC50 (SMMC-7721 [12]): 1220 nM
- IC50 (A2780 [13]): 790 nM
- IC50 (HCT-116 [14]): 270 nM
- IC50 (MCF7 [15]): 300 nM
- IC50 (MDA-MB-231 [16]): 460 nM
- IC50 (PC-3 [17]): 760 nM
- IC50 (DU-145 [18]): 180 nM

Structure (SMILES): C/C(=N\NC(=O)c1cccc(S(=O)(=O)N2CCOCC2)c1)c1cc(Cl)ccc1O
- IC50 (A549 [1]): 2690 nM
- IC50 (NCI-H1299 [2]): 3010 nM
- IC50 (SMMC-7721 [3]): 15800 nM
- IC50 (A2780 [4]): 2140 nM
- IC50 (HCT-116 [5]): 650 nM
- IC50 (MCF7 [6]): 440 nM
- IC50 (MDA-MB-231 [7]): 1400 nM
- IC50 (PC-3 [8]): 19700 nM
- IC50 (DU-145 [9]): 13100 nM
- IC50 (A549 [10]): 830 nM
- IC50 (NCI-H1299 [11]): 1730 nM
- IC50 (SMMC-7721 [12]): 5360 nM
- IC50 (A2780 [13]): 770 nM
- IC50 (HCT-116 [14]): 330 nM
- IC50 (MCF7 [15]): 190 nM
- IC50 (MDA-MB-231 [16]): 750 nM
- IC50 (PC-3 [17]): 4450 nM
- IC50 (DU-145 [18]): 620 nM

Reference: ChEMBL document CHEMBL4431347, “Synthesis and biological evaluation of novel (E)-N'-(2,3-dihydro-1H-inden-1-ylidene) benzohydrazides as potent LSD1 inhibitors” (Bioorg Med Chem Lett, 2016)
